Earlier results, collected in US20260077140A1, “METERED DOSE INHALER FOR IPRATROPIUM BROMIDE SOLUTION” (Glenmark Pharmaceuticals Limited, priority 2024, published 2026).
Where two headings read alike, the source gives them in different places.

Details: aerosol solution in HFA-134(a) and about 35% ethanol, stored at 50° C.

CC(C)[N+]1(C)[C@@H]2CC[C@H]1CC(OC(=O)C(CO)c1ccccc1)C2.[Br-] (some centres unmarked) [ipratropium bromide]
decomposition of the ipratropium bromide: significant decomposition
decomposition of the ipratropium bromide (addition of 1% water): reduced the decomposition due to dehydration
